Experimental data: patent publication US20230085307A1, “PYRIDAZINONE COMPOUND AND HERBICIDE” (NISSAN CHEMICAL CORPORATION, priority 2019, published 2023)

Tests used:
lambsquarters [1] = assay: Test Example 5: herbicidal effect by foliage application, plastic box (Table 20, symbol O); assay type: in vivo, lambsquarters (Chenopodium album); settings: foliage application, 320 g/ha
Summary of the method: (§1)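 Plants were sown into sterilized diluvial soil under about 1.5 cm cover and kept in a greenhouse at 25° C. to 30° C. Fourteen days on, foliage received an even spray of the diluted emulsion. Herbicidal or crop effect was judged three weeks afterwards.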

wild oat [2] = assay: Test Example 4: herbicidal effect by soil treatment (Table 19, symbol I); assay type: in vivo, wild oat (Avena fatua)
Summary of the method: (§2)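 Pre-emergence style soil spray: seeds under ~1.5 cm sterilized diluvial soil received a uniform coat of emulsion diluted to the predetermined herbicide amount. Greenhouse 25–30° C; readout at week three on previously defined criteria.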

blackgrass [3] = assay: Test Example 4: herbicidal effect by soil treatment (Table 19, symbol J); assay type: in vivo, blackgrass (Alopecurus myosuroides)
Summary of the method: as §2

green foxtail [4] = assay: Test Example 5: herbicidal effect by foliage application, plastic box (Table 20, symbol G); assay type: in vivo, green foxtail (Setaria viridis); settings: foliage application, 320 g/ha
Summary of the method: as §1

chickweed [5] = assay: Test Example 4: herbicidal effect by soil treatment (Table 19, symbol P); assay type: in vivo, common chickweed (Stellaria media)
Summary of the method: as §2

southern crabgrass [6] = assay: Test Example 5: herbicidal effect by foliage application, plastic box (Table 20, symbol F); assay type: in vivo, southern crabgrass (Digitaria ciliaris); settings: foliage application, 320 g/ha
Summary of the method: as §1

chickweed [7] = assay: Test Example 5: herbicidal effect by foliage application, plastic box (Table 20, symbol P); assay type: in vivo, common chickweed (Stellaria media); settings: foliage application, 320 g/ha
Summary of the method: as §1

barnyard grass [8] = assay: Test Example 3: herbicidal effect by foliage application, Wagner pot (Table 18, symbol H); assay type: in vivo, barnyard grass (Echinochloa crus-galli); settings: 320 g/ha
Summary of the method: (§3)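 Plants were sown in alluvial soil held under 0.1–0.5 cm standing water and grown 14 days in a greenhouse at 25–30 °C. An emulsifiable formulation, water-diluted to the set dose, was then sprayed onto the foliage, and effects were scored three weeks later using previously defined criteria.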

velvetleaf [9] = assay: Test Example 5: herbicidal effect by foliage application, plastic box (Table 20, symbol M); assay type: in vivo, velvetleaf (Abutilon theophrasti); settings: foliage application, 320 g/ha
Summary of the method: as §1

wild oat [10] = assay: Test Example 5: herbicidal effect by foliage application, plastic box (Table 20, symbol I); assay type: in vivo, wild oat (Avena fatua); settings: foliage application, 320 g/ha
Summary of the method: as §1

Italian ryegrass [11] = assay: Test Example 4: herbicidal effect by soil treatment (Table 19, symbol K); assay type: in vivo, Italian ryegrass (Lolium multiflorum)
Summary of the method: as §2

barnyard grass [12] = assay: Test Example 5: herbicidal effect by foliage application, plastic box (Table 20, symbol H); assay type: in vivo, barnyard grass (Echinochloa crus-galli); settings: foliage application, 320 g/ha
Summary of the method: as §1

late watergrass = assay: Test Example 2: herbicidal activity, application during weed generation under submerged conditions (Table 17, symbol A); assay type: in vivo, late watergrass (Echinochloa oryzicola); settings: AAH 320 g/ha; application during weed generation, submerged conditions
Summary of the method: (§4)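 Herbicide emulsion, diluted with water to the chosen amount, is applied onto 4 cm floodwater over alluvial soil where the weeds were co-sown and raised at 25–30° C. Application timing: 1–2 leaves. Assessment: three weeks afterwards.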

Italian ryegrass [13] = assay: Test Example 5: herbicidal effect by foliage application, plastic box (Table 20, symbol K); assay type: in vivo, Italian ryegrass (Lolium multiflorum); settings: foliage application, 320 g/ha
Summary of the method: as §1

blackgrass [14] = assay: Test Example 5: herbicidal effect by foliage application, plastic box (Table 20, symbol J); assay type: in vivo, blackgrass (Alopecurus myosuroides); settings: foliage application, 320 g/ha
Summary of the method: as §1

Chinese sprangletop = assay: Test Example 3: herbicidal effect by foliage application, Wagner pot (Table 18, symbol D); assay type: in vivo, chinese sprangletop (Leptochloa chinensis); settings: 320 g/ha
Summary of the method: as §3

windgrass [15] = assay: Test Example 4: herbicidal effect by soil treatment (Table 19, symbol L); assay type: in vivo, windgrass (Apera spica-venti)
Summary of the method: as §2

Japanese bulrush = assay: Test Example 2: herbicidal activity, application during weed generation under submerged conditions (Table 17, symbol B); assay type: in vivo, Japanese bulrush (Schoenoplectus juncoides); settings: AAH 320 g/ha; application during weed generation, submerged conditions
Summary of the method: as §4

windgrass [16] = assay: Test Example 5: herbicidal effect by foliage application, plastic box (Table 20, symbol L); assay type: in vivo, windgrass (Apera spica-venti); settings: foliage application, 320 g/ha
Summary of the method: as §1

persian speedwell [17] = assay: Test Example 4: herbicidal effect by soil treatment (Table 19, symbol R); assay type: in vivo, Persian speedwell (Veronica persica)
Summary of the method: as §2

redroot pigweed [18] = assay: Test Example 5: herbicidal effect by foliage application, plastic box (Table 20, symbol N); assay type: in vivo, redroot pigweed (Amaranthus retroflexus); settings: foliage application, 320 g/ha
Summary of the method: as §1

oval-leafed pondweed = assay: Test Example 2: herbicidal activity, application during weed generation under submerged conditions (Table 17, symbol C); assay type: in vivo, oval-leafed pondweed (Monochoria vaginalis); settings: AAH 320 g/ha; application during weed generation, submerged conditions
Summary of the method: as §4

persian speedwell [19] = assay: Test Example 5: herbicidal effect by foliage application, plastic box (Table 20, symbol R); assay type: in vivo, Persian speedwell (Veronica persica); settings: foliage application, 320 g/ha
Summary of the method: as §1

rice flat sedge = assay: Test Example 3: herbicidal effect by foliage application, Wagner pot (Table 18, symbol E); assay type: in vivo, rice flat sedge (Cyperus iria); settings: 320 g/ha
Summary of the method: as §3

velvetleaf [20] = assay: Test Example 4: herbicidal effect by soil treatment (Table 19, symbol M); assay type: in vivo, velvetleaf (Abutilon theophrasti); settings: 320 g/ha
Summary of the method: as §2

southern crabgrass [21] = assay: Test Example 4: herbicidal effect by soil treatment (Table 19, symbol F); assay type: in vivo, southern crabgrass (Digitaria ciliaris); settings: 320 g/ha
Summary of the method: as §2

green foxtail [22] = assay: Test Example 4: herbicidal effect by soil treatment (Table 19, symbol G); assay type: in vivo, green foxtail (Setaria viridis); settings: 320 g/ha
Summary of the method: as §2

barnyard grass [23] = assay: Test Example 4: herbicidal effect by soil treatment (Table 19, symbol H); assay type: in vivo, barnyard grass (Echinochloa crus-galli); settings: 320 g/ha
Summary of the method: as §2

redroot pigweed [24] = assay: Test Example 4: herbicidal effect by soil treatment (Table 19, symbol N); assay type: in vivo, redroot pigweed (Amaranthus retroflexus); settings: 320 g/ha
Summary of the method: as §2

lambsquarters [25] = assay: Test Example 4: herbicidal effect by soil treatment (Table 19, symbol O); assay type: in vivo, lambsquarters (Chenopodium album); settings: 320 g/ha
Summary of the method: as §2

[26] = amount of applied herbicide 320 g/ha
[27] = evaluated three weeks after application

SMILES: CCCC(=O)Oc1c(C)nn(C)c(=O)c1-c1c(-c2ccc(OC(F)(F)F)cc2)sc2ccccc12 [1-032]
- herbicidal effect grade, O: lambsquarters (lambsquarters [1]; three weeks after application): 5 (Herbicidal rate of 90% or more (almost completely withered))
- herbicidal effect rating, I: wild oat (wild oat [2]; [26]): 0 (Herbicidal rate of 5% or less (almost no effect))
- herbicidal effect rating, J: blackgrass (blackgrass [3]; [26]): 0 (Herbicidal rate of 5% or less (almost no effect))
- herbicidal effect grade, G: green foxtail (green foxtail [4]; three weeks after application): 4 (Herbicidal rate of 70% or more and less than 90%)
- herbicidal effect rating, P: chickweed (chickweed [5]; [26]): 3 (Herbicidal rate of 40% or more and less than 70%)
- herbicidal effect grade, F: southern crabgrass (southern crabgrass [6]; three weeks after application): 0 (Herbicidal rate of 5% or less (almost no effect))
- herbicidal effect grade, P: chickweed (chickweed [7]; three weeks after application): 5 (Herbicidal rate of 90% or more (almost completely withered))
- herbicidal effect on H (barnyard grass), rating 0-5 (barnyard grass [8]): 4 (Herbicidal rate of 70% or more and less than 90%)
- herbicidal effect grade, M: velvetleaf (velvetleaf [9]; three weeks after application): 5 (Herbicidal rate of 90% or more (almost completely withered))
- herbicidal effect grade, I: wild oat (wild oat [10]; three weeks after application): 0 (Herbicidal rate of 5% or less (almost no effect))
- herbicidal effect rating, K: Italian ryegrass (Italian ryegrass [11]; [26]): 4 (Herbicidal rate of 70% or more and less than 90%)
- herbicidal effect grade, H: barnyard grass (barnyard grass [12]; three weeks after application): 3 (Herbicidal rate of 40% or more and less than 70%)
- herbicidal effect rating, A: late watergrass (late watergrass): 0 (Herbicidal rate of 5% or less (almost no effect))
- herbicidal effect grade, K: Italian ryegrass (Italian ryegrass [13]; three weeks after application): 3 (Herbicidal rate of 40% or more and less than 70%)
- herbicidal effect grade, J: blackgrass (blackgrass [14]; three weeks after application): 2 (Herbicidal rate of 20% or more and less than 40%)
- herbicidal effect on D (Chinese sprangletop), rating 0-5 (Chinese sprangletop): 0 (Herbicidal rate of 5% or less (almost no effect))
- herbicidal effect rating, L: windgrass (windgrass [15]; [26]): 0 (Herbicidal rate of 5% or less (almost no effect))
- herbicidal effect rating, B: Japanese bulrush (Japanese bulrush): 1 (Herbicidal rate of 5% or more and less than 20%)
- herbicidal effect grade, L: windgrass (windgrass [16]; three weeks after application): 0 (Herbicidal rate of 5% or less (almost no effect))
- herbicidal effect rating, R: persian speedwell (persian speedwell [17]; [26]): 5 (Herbicidal rate of 90% or more (almost completely withered))
- herbicidal effect grade, N: redroot pigweed (redroot pigweed [18]; three weeks after application): 4 (Herbicidal rate of 70% or more and less than 90%)
- herbicidal effect rating, C: oval-leafed pondweed (oval-leafed pondweed): 3 (Herbicidal rate of 40% or more and less than 70%)
- herbicidal effect grade, R: persian speedwell (persian speedwell [19]; three weeks after application): 5 (Herbicidal rate of 90% or more (almost completely withered))
- herbicidal effect on E (rice flat sedge), rating 0-5 (rice flat sedge): 5 (Herbicidal rate of 90% or more (almost completely withered))

SMILES: COCCOCOc1c(C)nn(C)c(=O)c1-c1c(-c2ccc(OCC#N)cc2)sc2ccc(F)cc12 [2-067]
- herbicidal effect on O: lambsquarters (lambsquarters [1]; [27]): 4 (Herbicidal rate of 70% or more and less than 90%)
- herbicidal effect rating, I: wild oat (wild oat [2]; 320 g/ha): 0 (Herbicidal rate of 5% or less (almost no effect))
- herbicidal effect rating, J: blackgrass (blackgrass [3]; 320 g/ha): 0 (Herbicidal rate of 5% or less (almost no effect))
- herbicidal effect on G: green foxtail (green foxtail [4]; [27]): 1 (Herbicidal rate of 5% or more and less than 20%)
- herbicidal effect rating, P: chickweed (chickweed [5]; 320 g/ha): 0 (Herbicidal rate of 5% or less (almost no effect))
- herbicidal effect rating, M: velvetleaf (velvetleaf [20]): 0 (Herbicidal rate of 5% or less (almost no effect))
- herbicidal effect on F: southern crabgrass (southern crabgrass [6]; [27]): 3 (Herbicidal rate of 40% or more and less than 70%)
- herbicidal effect on P: chickweed (chickweed [7]; [27]): 4 (Herbicidal rate of 70% or more and less than 90%)
- herbicidal effect on H (barnyard grass), rating 0-5 (barnyard grass [8]): 4 (Herbicidal rate of 70% or more and less than 90%)
- herbicidal effect on M: velvetleaf (velvetleaf [9]; [27]): 2 (Herbicidal rate of 20% or more and less than 40%)
- herbicidal effect on I: wild oat (wild oat [10]; [27]): 0 (Herbicidal rate of 5% or less (almost no effect))
- herbicidal effect rating, K: Italian ryegrass (Italian ryegrass [11]; 320 g/ha): 0 (Herbicidal rate of 5% or less (almost no effect))
- herbicidal effect rating, F: southern crabgrass (southern crabgrass [21]): 0 (Herbicidal rate of 5% or less (almost no effect))
- herbicidal effect on H: barnyard grass (barnyard grass [12]; [27]): 1 (Herbicidal rate of 5% or more and less than 20%)
- herbicidal effect rating, A: late watergrass (late watergrass): 2 (Herbicidal rate of 20% or more and less than 40%)
- herbicidal effect rating, G: green foxtail (green foxtail [22]): 0 (Herbicidal rate of 5% or less (almost no effect))
- herbicidal effect rating, H: barnyard grass (barnyard grass [23]): 0 (Herbicidal rate of 5% or less (almost no effect))
- herbicidal effect on K: Italian ryegrass (Italian ryegrass [13]; [27]): 0 (Herbicidal rate of 5% or less (almost no effect))
- herbicidal effect rating, N: redroot pigweed (redroot pigweed [24]): 3 (Herbicidal rate of 40% or more and less than 70%)
- herbicidal effect on J: blackgrass (blackgrass [14]; [27]): 0 (Herbicidal rate of 5% or less (almost no effect))
- herbicidal effect on D (Chinese sprangletop), rating 0-5 (Chinese sprangletop): 5 (Herbicidal rate of 90% or more (almost completely withered))
- herbicidal effect rating, O: lambsquarters (lambsquarters [25]): 3 (Herbicidal rate of 40% or more and less than 70%)
- herbicidal effect rating, L: windgrass (windgrass [15]; 320 g/ha): 0 (Herbicidal rate of 5% or less (almost no effect))
- herbicidal effect rating, B: Japanese bulrush (Japanese bulrush): 0 (Herbicidal rate of 5% or less (almost no effect))
- herbicidal effect on L: windgrass (windgrass [16]; [27]): 0 (Herbicidal rate of 5% or less (almost no effect))
- herbicidal effect rating, R: persian speedwell (persian speedwell [17]; 320 g/ha): 3 (Herbicidal rate of 40% or more and less than 70%)
- herbicidal effect on N: redroot pigweed (redroot pigweed [18]; [27]): 5 (Herbicidal rate of 90% or more (almost completely withered))
- herbicidal effect rating, C: oval-leafed pondweed (oval-leafed pondweed): 0 (Herbicidal rate of 5% or less (almost no effect))
- herbicidal effect on R: persian speedwell (persian speedwell [19]; [27]): 5 (Herbicidal rate of 90% or more (almost completely withered))
- herbicidal effect on E (rice flat sedge), rating 0-5 (rice flat sedge): 3 (Herbicidal rate of 40% or more and less than 70%)
